Tests used:
[1] = test system: DBTRG-05MG; assay: Synergistic cytotoxicity against human DBTRG-05MG cells assessed as combination index at 89.9 uM after 48 hrs in presence of 412.1 uM TMZ by MTT assay; assay type: functional
[2] = test system: DBTRG-05MG; assay: Induction of cell cycle arrest in human DBTRG-05MG cells assessed as CDK4 expression at 112.4 uM after 48 hrs in presence of TMZ by Western blot analysis (reference value: 1); assay type: functional
[3] = Inhibition of TMZ-induced drug resistance in human DBTRG-05MG cells assessed as CD133 expression at 112.4 uM after 48 hrs by Western blot analysis (reference value: 2.3); assay type: functional
[4] = test system: DBTRG-05MG; assay: Synergistic cytotoxicity against human DBTRG-05MG cells assessed as synergistic effect index at 134.9 uM after 48 hrs in presence of 206 uM TMZ by MTT assay; assay type: functional
[5] = test system: DBTRG-05MG; assay: Induction of DNA damage in human DBTRG-05MG cells assessed as Chk2 phosphorylation at Thr68 residues at 112.4 uM after 48 hrs by Western blot analysis (reference value: 1); assay type: functional
[6] = test system: DBTRG-05MG; assay: Induction of cell cycle arrest in human DBTRG-05MG cells assessed as accumulation at S phase at 112.4 uM after 24 hrs in presence of TMZ by propidium iodide staining based flow cytometric analysis (reference value: 22.76 +/- 1.56%); assay type: functional
[7] = test system: RG2; assay: Inhibition of JNK phosphorylation at Thr183/Tyr185 residues in rat RG2 cells at 112.4uM after 48 hrs in presence of TMZ by Western blot analysis (reference value: 1); assay type: cell-based
[8] = test system: RG2; assay: Induction of cell cycle arrest in rat RG2 cells assessed as accumulation at S phase at 112.4 uM after 48 hrs in presence of TMZ by propidium iodide staining based flow cytometric analysis (reference value: 20.15 +/- 2.44%); assay type: functional
[9] = test system: RG2; assay: Induction of apoptosis in rat RG2 cells assessed as cleaved caspace-9 expression at 112.4 uM after 48 hrs by Western blot analysis (reference value: 1); assay type: functional
[10] = Effect of CD133 expression in rat RG2 cells at 112.4 uM after 48 hrs by Western blot analysis; assay type: functional
[11] = test system: RG2; assay: Synergistic cytotoxicity against rat RG2 cells assessed as combination index at 89.9 uM after 48 hrs in presence of 515.1 uM TMZ by MTT assay; assay type: functional
[12] = test system: DBTRG-05MG; assay: Induction of cell cycle arrest in human DBTRG-05MG cells assessed as CyclinD1 expression at 112.4 uM after 48 hrs in presence of TMZ by Western blot analysis (reference value: 1); assay type: functional
[13] = test system: DBTRG-05MG; assay: Induction of apoptosis in human DBTRG-05MG cells assessed as cleaved PARP expression at 112.4 uM after 48 hrs in presence of TMZ by Western blot analysis (reference value: 1); assay type: functional

For C[C@@H]1CC[C@H]2C(C)(C)[C@H]3C[C@@]12CC[C@@]3(C)O [CEDROL], the CI [1] was 0.8, the “fold change (FC)” value [2] was 0.6 and the “fold change (FC)” value [3] was 1.5. For the same molecule, the Activity_index [4] was 0.88, the “fold change (FC)” value [5] was 1.9 and the Activity [6] was 14.17%. For the same molecule, the fold change (FC) [7] was 0.6, the Activity [8] was 20.29% and the “fold change (FC)” value [9] was 1.3. The “fold change (FC)” value [10] was 1, the CI [11] was 1.38 and the “fold change (FC)” value [12] was 0.4. The “fold change (FC)” value [13] was 1.9.

Source: ChEMBL document CHEMBL4699511, “Cedrol, a Sesquiterpene Alcohol, Enhances the Anticancer Efficacy of Temozolomide in Attenuating Drug Resistance via Regulation of the DNA Damage Response and MGMT Expression” (J Nat Prod, 2020)
